Measurements reported in ChEMBL document CHEMBL1140634, “The biology and chemistry of hyperlipidemia” (Bioorg Med Chem, 2007).
Values belong to the compound of their own block, whether it stands above or below them.

Columns and labels:
Lanosterol synthase = biological target: T1, Lanosterol synthase (Candida albicans (strain SC5314 / ATCC MYA-2876) (Yeast), UniProt Q04782)
T1 sequence (Q04782 whole entry): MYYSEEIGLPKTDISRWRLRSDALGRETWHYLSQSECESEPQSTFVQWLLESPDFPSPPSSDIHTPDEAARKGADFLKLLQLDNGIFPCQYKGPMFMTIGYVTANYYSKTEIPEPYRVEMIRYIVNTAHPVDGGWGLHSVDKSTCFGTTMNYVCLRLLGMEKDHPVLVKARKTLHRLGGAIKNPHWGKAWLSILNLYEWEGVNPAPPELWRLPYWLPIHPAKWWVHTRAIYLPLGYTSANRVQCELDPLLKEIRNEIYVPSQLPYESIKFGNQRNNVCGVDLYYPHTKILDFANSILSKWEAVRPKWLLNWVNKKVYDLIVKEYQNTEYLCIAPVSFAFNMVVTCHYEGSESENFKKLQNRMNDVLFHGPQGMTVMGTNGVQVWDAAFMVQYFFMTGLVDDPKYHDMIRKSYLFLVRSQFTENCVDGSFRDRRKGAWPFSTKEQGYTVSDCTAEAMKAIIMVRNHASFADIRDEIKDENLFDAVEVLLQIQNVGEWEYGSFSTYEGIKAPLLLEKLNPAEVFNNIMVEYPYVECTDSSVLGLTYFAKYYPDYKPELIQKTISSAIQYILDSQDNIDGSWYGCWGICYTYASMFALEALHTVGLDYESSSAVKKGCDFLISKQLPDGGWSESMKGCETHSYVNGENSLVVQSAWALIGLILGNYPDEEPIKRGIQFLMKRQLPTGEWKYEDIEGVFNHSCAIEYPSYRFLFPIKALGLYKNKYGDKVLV
Description: Inhibition of Candida albicans OSC

[1] = Inhibition of pig OSC; design: species or system Sus scrofa
[2] = biological target: T2, 3-hydroxy-3-methylglutaryl-coenzyme A reductase (Homo sapiens) (UniProt P04035); experiment: Inhibition of HMG-CoA reductase relative to control; conditions: concentration not given here
T2 sequence (whole entry): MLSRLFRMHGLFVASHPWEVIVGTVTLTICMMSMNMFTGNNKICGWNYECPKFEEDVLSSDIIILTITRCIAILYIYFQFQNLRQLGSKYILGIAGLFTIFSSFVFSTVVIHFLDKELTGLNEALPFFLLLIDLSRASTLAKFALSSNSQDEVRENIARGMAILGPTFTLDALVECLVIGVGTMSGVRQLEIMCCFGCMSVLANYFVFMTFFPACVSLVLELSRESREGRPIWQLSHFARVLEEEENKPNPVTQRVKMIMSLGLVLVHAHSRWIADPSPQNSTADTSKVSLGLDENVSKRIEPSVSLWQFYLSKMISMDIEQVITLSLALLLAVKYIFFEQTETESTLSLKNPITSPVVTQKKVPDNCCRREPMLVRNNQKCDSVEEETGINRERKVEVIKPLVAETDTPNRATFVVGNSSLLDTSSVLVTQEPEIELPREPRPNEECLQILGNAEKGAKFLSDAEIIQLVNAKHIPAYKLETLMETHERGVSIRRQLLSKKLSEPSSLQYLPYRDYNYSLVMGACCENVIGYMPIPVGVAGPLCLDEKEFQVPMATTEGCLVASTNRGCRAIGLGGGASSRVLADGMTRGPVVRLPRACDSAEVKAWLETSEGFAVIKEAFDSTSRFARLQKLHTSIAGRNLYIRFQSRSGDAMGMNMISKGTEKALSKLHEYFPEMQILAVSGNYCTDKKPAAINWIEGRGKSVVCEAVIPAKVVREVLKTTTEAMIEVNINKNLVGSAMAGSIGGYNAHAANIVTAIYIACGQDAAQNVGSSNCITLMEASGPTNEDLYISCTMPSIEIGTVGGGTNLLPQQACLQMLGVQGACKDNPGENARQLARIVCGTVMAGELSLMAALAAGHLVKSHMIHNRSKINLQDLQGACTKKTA

[3] = biological target: T3, Lanosterol 14-alpha demethylase (Homo sapiens, UniProt Q16850); experiment: Inhibition of LDM in human HepG2 cells at 2 nM; assay type: cell-based
T3 sequence (Q16850 whole entry): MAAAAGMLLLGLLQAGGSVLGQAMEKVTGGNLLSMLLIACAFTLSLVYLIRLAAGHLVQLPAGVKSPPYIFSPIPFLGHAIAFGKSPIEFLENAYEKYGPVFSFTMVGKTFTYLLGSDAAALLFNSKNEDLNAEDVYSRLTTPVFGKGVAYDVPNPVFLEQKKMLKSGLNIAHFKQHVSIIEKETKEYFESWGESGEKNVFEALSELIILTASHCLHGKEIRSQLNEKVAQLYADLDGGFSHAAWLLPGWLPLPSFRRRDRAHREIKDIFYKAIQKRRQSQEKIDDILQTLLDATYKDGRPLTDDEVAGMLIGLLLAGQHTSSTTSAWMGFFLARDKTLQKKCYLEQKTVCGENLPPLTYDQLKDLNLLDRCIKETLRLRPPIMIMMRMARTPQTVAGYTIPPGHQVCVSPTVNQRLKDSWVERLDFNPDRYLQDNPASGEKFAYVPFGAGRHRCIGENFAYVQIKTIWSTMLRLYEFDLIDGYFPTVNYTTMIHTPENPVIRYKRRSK

Rattus norvegicus [4] = experiment: Reduction in LDL cholesterol in rat plasma at 20 mg/kg, po qd for 7 days; assay type: functional; design: scale not given: the % may be the effect or the level left
[5] = Inhibition of rat liver microsomal squalene synthase
Rattus norvegicus [6] = species on record: Rattus norvegicus; experiment: Inhibition of [14C]cholesterol synthesis in rat liver after 1 hr; assay type: functional
[7] = Inhibition of HMG-CoA synthase
[8] = biological target: T4, Pancreatic triacylglycerol lipase (Homo sapiens, UniProt P16233); experiment: Inhibition of pancreatic lipase
T4 sequence (P16233 whole entry): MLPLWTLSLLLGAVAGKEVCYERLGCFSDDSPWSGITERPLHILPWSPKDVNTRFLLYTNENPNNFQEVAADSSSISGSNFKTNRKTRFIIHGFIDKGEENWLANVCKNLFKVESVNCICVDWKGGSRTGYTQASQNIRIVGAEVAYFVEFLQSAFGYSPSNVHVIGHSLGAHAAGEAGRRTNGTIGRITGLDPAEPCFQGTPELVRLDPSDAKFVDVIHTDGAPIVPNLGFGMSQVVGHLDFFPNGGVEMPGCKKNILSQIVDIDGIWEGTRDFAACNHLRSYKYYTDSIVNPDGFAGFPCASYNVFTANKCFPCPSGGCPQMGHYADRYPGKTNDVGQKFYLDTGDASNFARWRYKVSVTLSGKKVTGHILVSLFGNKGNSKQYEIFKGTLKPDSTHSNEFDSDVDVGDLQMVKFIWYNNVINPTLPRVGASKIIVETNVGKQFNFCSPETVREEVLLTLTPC

Rhesus monkey = experiment: Decrease in nonHDL-C level in rhesus monkey plasma at 50 mg/kg, bid for 21 days; assay type: functional, Macaca mulatta; design: scale not given: the % may be the effect or the level left
Rattus norvegicus [9] = species on record: Rattus norvegicus; experiment: Inhibition of fatty acid synthesis in rat; assay type: functional
Rattus norvegicus [10] = species on record: Rattus norvegicus; experiment: Inhibition of cholesterol synthesis in rat; assay type: functional
HepG2 [11] = experiment: Inhibition of cholesterol synthesis in human HepG2 cells; assay type: functional
HepG2 [12] = experiment: Inhibition of fatty acid synthesis in human HepG2 cells; assay type: functional
[13] = Inhibition of ferrous/ascorbate induced lipid peroxidation of microsomal membrane lipids; assay type: functional
Oryctolagus cuniculus = species on record: Oryctolagus cuniculus; experiment: Decrease in aortic arch lesions in cholesterol fed rabbit; assay type: functional; design: scale not given: the % may be the effect or the level left
[14] = biological target: T5, Lanosterol 14-alpha demethylase (Rattus norvegicus, UniProt Q64654); experiment: Inhibition of rat liver LDM
T5 sequence (Q64654 whole entry): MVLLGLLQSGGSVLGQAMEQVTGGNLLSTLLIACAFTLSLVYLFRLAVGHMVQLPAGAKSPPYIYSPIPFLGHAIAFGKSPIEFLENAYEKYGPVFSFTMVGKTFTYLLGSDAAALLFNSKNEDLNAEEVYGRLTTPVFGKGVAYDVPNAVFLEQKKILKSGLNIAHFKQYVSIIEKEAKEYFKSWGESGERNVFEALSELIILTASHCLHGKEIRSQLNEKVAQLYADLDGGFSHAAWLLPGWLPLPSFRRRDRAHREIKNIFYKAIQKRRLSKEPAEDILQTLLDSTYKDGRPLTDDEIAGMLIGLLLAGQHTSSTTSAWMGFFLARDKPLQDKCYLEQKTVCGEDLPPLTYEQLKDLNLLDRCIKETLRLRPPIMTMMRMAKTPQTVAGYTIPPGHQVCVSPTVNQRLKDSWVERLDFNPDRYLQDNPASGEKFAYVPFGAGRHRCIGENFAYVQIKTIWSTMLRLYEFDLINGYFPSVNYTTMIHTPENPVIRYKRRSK

Rattus norvegicus [15] = species on record: Rattus norvegicus; experiment: Reduction of cholesterol absorption in normal diet fed rat; assay type: functional
Rattus norvegicus [16] = experiment: Inhibition of cholesterol biosynthesis in po dosed Sprague-Dawley rat; assay type: functional

SMILES: CC(C)=CCCC(C)SCC/C(C)=C/CC/C=C(\C)CC/C=C(\C)CCC1OC1(C)C (centres undefined)
IC50 (Lanosterol synthase): 0.22 nM | IC50 [1]: 50 nM | Ki [1]: 500 nM

SMILES: O[C@@]1(c2ccc(-c3ccc4ncccc4c3)cc2)CN2CCC1CC2
Activity (Rattus norvegicus [4]): 43% | IC50 [5]: 0.6 nM | ED50 (Rattus norvegicus [6]): 5 mg/kg

SMILES: F/C(COc1ccc2c(c1)[nH]c1ccccc12)=C1/CN2CCC1CC2
Activity (Rhesus monkey): 37% | ED50 (Rattus norvegicus [6]): 32 mg/kg

SMILES: CCOc1ccc(CC(=O)OC[C@@H]2[C@H](CC)C(=O)N2Cc2ccc(S(=O)(=O)O)cc2)cc1OCC
IC50 [7]: 2 nM

SMILES: O=C(O)C[C@@]1(O)C[C@@H](CCCCCCc2ccc(Cl)cc2Cl)OC1=O
Inhibition (Rattus norvegicus [9]): 39% | Inhibition (Rattus norvegicus [10]): 76% | Inhibition (HepG2 [11]): 91% | Inhibition (HepG2 [12]): 82%

SMILES: CN1CC(O)(c2ccc(-c3ccccc3)cc2)OC2CCCCC21 (centres undefined)
IC50 [13]: 250000 nM

SMILES: CCC(CC)CC1(C(=O)Nc2ccccc2SC(=O)C(C)C)CCCCC1 [DALCETRAPIB]
Activity (Oryctolagus cuniculus): 70%

SMILES: CC(C)c1cc2c(c(O)c1O)[C@@]1(C(=O)O)CCCC(C)(C)[C@@H]1CC2 [CARNOSIC ACID]
IC50 [8]: 36000 nM

SMILES: CC1CCN(C(=O)Oc2ccc(Oc3ccccc3)cc2)CC1
ED50 (Rattus norvegicus [15]): 10 mg/kg

SMILES: COc1ccccc1/C(C)=C/CN(C)CCCC(P(=O)(O)OCOC(=O)C(C)(C)C)P(=O)(OCOC(=O)C(C)(C)C)OCOC(=O)C(C)(C)C (centres undefined)
ED50 (Rattus norvegicus [16]): 1.6 mg/kg

SMILES: O[C@]1(c2ccc(-c3ccc4ncccc4c3)cc2)CN2CCC1CC2
Activity (Rattus norvegicus [4]): 50% | IC50 [5]: 0.6 nM | ED50 (Rattus norvegicus [6]): 5 mg/kg

Further lines, results first:

inhibition [2]: 30% | inhibition at 0.002 µM [3]: 50%
SMILES: CC(C)CCC[C@@H](C)[C@H]1C=C[C@@]2(CC(=O)O)C3=C(CC[C@]12C)[C@@]1(C)CC[C@H](O)C(C)(C)[C@@H]1CC3

IC50 [7]: 150 nM
SMILES: C/C=C/CCCC/C=C/C(=O)NC(CC1(O)C(=O)C2OC2C2OC21)C(=O)OC (centres undefined)

IC50 [8]: 13000 nM
SMILES: CC(C)c1cc2c(c(O)c1O)[C@@]13CCCC(C)(C)[C@@H]1C[C@@H]2OC3=O [CARNOSOL]

IC50 [7]: 98 nM
SMILES: C/C=C/CCCC/C=C/C(=O)N[C@H](C[C@]1(O)C(=O)C2OC2C2OC21)C(=O)OC (some centres undefined)

IC50 [14]: 55000 nM
SMILES: CC(C)CCC[C@@H](C)[C@H]1C/C(=N\O)[C@@]2(C)[C@@H]3CC[C@@]4(C)C[C@@H](O)CC[C@]4(O)[C@H]3CC[C@]12C

IC50 [5]: 3.6 nM
SMILES: COc1ccccc1/C(C)=C/CN(C)CCCC(P(=O)(O)O)P(=O)(O)O

IC50 [7]: 31000 nM
SMILES: C/C=C/CCCC/C=C/C(=O)N[C@@H](C[C@@]1(O)C(=O)C2OC2C2OC21)C(=O)OC (some centres undefined)
